{"source": "patent US20040170705A1", "about": "“Compositions and methods for non-insulin glucose uptake” (priority 2001, published 2004)", "key": {"skeletal muscle cells": {"tested_on": "skeletal muscle cells", "conditions": "cited from earlier work"}, "L6 muscle cells": {"tested_on": "L6 muscle cells", "test": "glucose uptake in L6 muscle cells (2-NBDG fluorescence)", "assay_type": "cell-based", "protocol": "The permeate portion of GMM was tested for glucose uptake in L6 muscle cells. L6 cells were grown as monolayers in Dulbecco's modified Eagle's medium (DMEM) containing 1 mM glutamine, 1 mM pyruvate and 25 mM glucose. The medium was supplemented with 5% fetal calf serum (FCS). Experiments were undertaken in 48-well plates seeded from pre-confluent flasks with 50 000 cells per well. The cells were grown to confluence and the medium was changed to DMEM containing 0.5% FCS and 2.5 mM glucose (L6 Myo Medium) for at least 76 hrs to induce differentiation of L6 cells and formation of L6 myotubes. Myotubes were then incubated with test substances for 30 minutes—Protocol SMM, or in Dulbecco's PBS supplemented with 20 mM Hepes and 2 mM glucose without serum—Serum-free Medium (SFM) Protocol as described by Fryer et al. ((Activation of glucose transport by AMP-activated protein kinase via stimulation of Nitric oxide synthase, Diabetes, 49(12), 1978-85, 2000, Fryer LGD, et al).\nNext, 30 uM of 2-NBDG was added for 2 minutes at 22C. Subsequently, cell culture medium was removed and cells were washed twice with cold DPBS. Then, cells were lysed in 0.5% SDS. Fluorescence was measured at 466/542 nm (excitation/emission) using 100 ul of cell lysate in 2 ml of water.\nCells were cultured, and treated in L6 Myo Medium (SSM)—SSM Protocol or in serum-free medium (SFM-DPBS containing 20 mM Hepes, 2 mM glucose)—SFM Protoci as described by Fryer et al. Glucose uptake was measured by adding 30 uM of 2-NBDG for 2′ at 22C. Experiments were performed in duplicates.\nL-NMMA has been used in the experiment to verify whether GMM-induced glucose transport in L6 cells is or is not inhibited by NOS inhibitors, thus mimicking AICAR—induced mechanism of increased glucose transport. Fryer's experimental set up was adopted, consisting of pre-treatment of cells with inhibitor for 30 minutes in DPBS and after that with agonists like AICAR or in our case GMM for next 30 minutes at 37C before performing glucose uptake."}}, "note": "Entries after “also recorded” stand apart in the source; their conditions may differ.", "data": [{"compound": "NC(=O)c1ncn([C@@H]2O[C@H](COP(=O)(O)O)[C@@H](O)[C@H]2O)c1N", "note": "[AICAR, 5′-aminoimidazole 4-carboxamide 1-ribonucleotide]", "values": [{"measurement": "effect on glucose uptake by pharmacological activation of AMPK", "setting": "skeletal muscle cells; skeletal muscle", "result": "increase in glucose uptake"}]}, {"compound": "CC(=O)O.CNC(=N)NCCC[C@H](N)C(=O)O", "note": "[L-NMMA, NG-methyl-L-arginine, acetate salt]", "values": [{"measurement": "effect on permeate/GMM-induced glucose uptake", "setting": "L6 muscle cells; L-NMMA 300 uM pre-treatment 30 minutes in DPBS, acetate salt", "result": "inhibits; also recorded: blocks"}, {"measurement": "effect on AICA-stimulated glucose uptake", "setting": "L6 muscle cells; pre-treatment with L-NMMA 30 minutes in DPBS, then AICA 30 minutes", "result": "inhibition"}, {"measurement": "effect on the increase of glucose transport after activation of AMPK", "setting": "skeletal muscle cells; NOS inhibitors, skeletal muscle cells", "result": "completely blocks"}]}, {"compound": "insulin: insulin used to treat L6 cells", "values": [{"measurement": "glucose uptake increase", "setting": "L6 muscle cells; culture medium supplemented with 0.5% FCS (SSM), by average", "result": "100-120%"}, {"measurement": "glucose uptake increase", "setting": "L6 muscle cells; serum-free medium (DPBS)", "result": "40-50%"}]}, {"compound": "NC(=O)c1[nH]cnc1N", "note": "[AICA]", "values": [{"measurement": "effect on glucose uptake", "setting": "L6 muscle cells; L6 cells, 30 minutes treatment, uptake 2 minutes at 22C", "result": "stimulation"}]}]}
